What was measured:
Conditions in all cases: read-out: dissociation constant (Kd)
[1] = target: T1, rBC2LCN (recombinant BC2LCN lectin, N-terminal domain of BC2L-C protein, Burkholderia cenocepacia), wild-type, SEQ ID NO: 1 (Burkholderia cenocepacia, UniProt B4EH86); assay: Binding affinity of wild-type rBC2LCN to sugar chain ligands by frontal affinity chromatography
T1 sequence (B4EH86 1-156): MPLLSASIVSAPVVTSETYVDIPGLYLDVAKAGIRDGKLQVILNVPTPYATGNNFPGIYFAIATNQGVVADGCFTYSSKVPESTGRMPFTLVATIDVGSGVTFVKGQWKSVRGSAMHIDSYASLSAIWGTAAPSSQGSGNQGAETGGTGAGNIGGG
Text: (§1) The binding affinities of rBC2LCN-ETA and wild-type rBC2LCN to “Fucα1-2Galβ1-3GlcNAc (H type 1)” and “Fucα1-2Galβ1-3GalNAc (H type 3)” as sugar chain ligands for rBC2LCN were examined by frontal affinity chromatography (Non Patent Literature 8). The results are shown below (Table 1).

[2] = target: T2, rBC2LCN-ETA fusion protein, rBC2LCN-(GSGGG)2-ETA (Burkholderia cenocepacia rBC2LCN, SEQ ID NO: 1, fused through spacer GSGGG, SEQ ID NO: 3, to cell-killing domain of Pseudomonas aeruginosa exotoxin A, SEQ ID NO: 2) (Burkholderia cenocepacia, UniProt B4EH86); assay: Binding affinity of rBC2LCN-ETA fusion protein to sugar chain ligands by frontal affinity chromatography
T2 construct: E. coli
Text: as §1

[3] = target: T3, rBC2LCN-ETA fusion protein, rBC2LCN-(GSGGG)2-ETA (Burkholderia cenocepacia rBC2LCN, SEQ ID NO: 1, fused through spacer GSGGG, SEQ ID NO: 3, to cell-killing doma (Burkholderia cenocepacia, UniProt B4EH86)); assay: as above; parameters: species or system Burkholderia cenocepacia / Pseudomonas aeruginosa
T3 construct: E. coli
Text: as §1

CC(=O)N[C@H]1[C@H](Oc2ccc([N+](=O)[O-])cc2)O[C@H](CO)[C@@H](O)[C@@H]1O[C@@H]1O[C@H](CO)[C@H](O)[C@H](O)[C@H]1O[C@@H]1O[C@@H](C)[C@@H](O)[C@@H](O)[C@@H]1O [H type1-pNP]
Kd [1]: 9.9 µM
Kd [2]: 8.3 µM

CC(=O)N[C@H]1[C@@H](Oc2ccc([N+](=O)[O-])cc2)O[C@H](CO)[C@H](O)[C@@H]1O[C@@H]1O[C@H](CO)[C@H](O)[C@H](O)[C@H]1O[C@@H]1O[C@@H](C)[C@@H](O)[C@@H](O)[C@@H]1O [H type 3, Fucα1-2Galβ1-3GalNAc]
Kd [1]: 25.4 µM
Kd [3]: 32.3 µM

CC(=O)N[C@H]1[C@@H](Oc2ccc([N+](=O)[O-])cc2)O[C@H](CO)[C@H](O)[C@@H]1O[C@@H]1O[C@H](CO)[C@H](O)[C@H](O)[C@H]1O[C@@H]1O[C@@H](C)[C@@H](O)[C@@H](O)[C@@H]1O [H type3-pNP]
Kd [1]: 32.3 µM
Kd [3]: 25.4 µM
